Assay results: the supplement of paper PMC10307832

Experiments:
Experiment in all cases: relative viability (nuclei count vs DMSO), 5 days (fraction); higher = more cells survive
H3255 = system: H3255
How it was run: (§1)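 Cells from lung cancer lines were seeded into 1536-well plates and, one day later, dosed by pin tool. Treatments were either a single drug or a fixed dose of an anchor drug with five library-drug doses (not always all listed) in √10 steps. After 5 days, nuclei were stained in a one-step fixation (final 0.05% Triton X-100, 1% formaldehyde, 1 ug/ml Hoechst) and counted on 4× images, and relative viability is the treated-to-vehicle nuclei ratio, as the median of duplicate plates.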

HCC-827 = system: HCC-827
How it was run: as §1

NCI-H1915 = system: NCI-H1915
How it was run: as §1

LC-2-ad = system: LC-2-ad
How it was run: as §1

NCI-H1792 = system: NCI-H1792
How it was run: as §1

EMC-BAC-2 = system: EMC-BAC-2
How it was run: as §1

HCC-15 = system: HCC-15
How it was run: as §1

PC-14 = system: PC-14
How it was run: as §1

EKVX = system: EKVX
How it was run: as §1

LCLC-97TM1 = system: LCLC-97TM1
How it was run: as §1

NCI-H23 = system: NCI-H23
How it was run: as §1

ChaGo-K-1 = system: ChaGo-K-1
How it was run: as §1

NCI-H1993 = system: NCI-H1993
How it was run: as §1

NCI-H1944 = system: NCI-H1944
How it was run: as §1

SK-LU-1 = system: SK-LU-1
How it was run: as §1

NCI-H460 = system: NCI-H460
How it was run: as §1

NCI-H1793 = system: NCI-H1793
How it was run: as §1

NCI-H322M = system: NCI-H322M
How it was run: as §1

EPLC-272H = system: EPLC-272H
How it was run: as §1

## COCC1(CO)C(=O)C2CCN1CC2 (stereo not given) [PRIMA-1MET] + CC1(C)CCC(c2ccc(Cl)cc2)=C(CN2CCN(c3ccc(C(=O)NS(=O)(=O)c4ccc(N[C@H](CCN5CCOCC5)CSc5ccccc5)c(S(=O)(=O)C(F)(F)F)c4)cc3)CC2)C1 [Navitoclax] (partner 0.5 µM)
H3255; first compound 0.2 µM
  relative viability: 0.557
H3255; first compound 0.6325 µM
  relative viability: 0.522
H3255; first compound 2 µM
  relative viability: 0.515
H3255; first compound 6.325 µM
  relative viability: 0.544
H3255; first compound 20 µM
  relative viability: 0.354
HCC-827; first compound 0.2 µM
  relative viability: 1.01
HCC-827; first compound 0.6325 µM
  relative viability: 0.9
HCC-827; first compound 2 µM
  relative viability: 0.721
HCC-827; first compound 6.325 µM
  relative viability: 1
HCC-827; first compound 20 µM
  relative viability: 1.03
NCI-H1915; first compound 0.2 µM
  relative viability: 0.766
NCI-H1915; first compound 0.6325 µM
  relative viability: 0.586
NCI-H1915; first compound 2 µM
  relative viability: 0.642
NCI-H1915; first compound 6.325 µM
  relative viability: 0.773
NCI-H1915; first compound 20 µM
  relative viability: 0.778
LC-2-ad; first compound 0.2 µM
  relative viability: 0.483
LC-2-ad; first compound 0.6325 µM
  relative viability: 0.375
LC-2-ad; first compound 2 µM
  relative viability: 0.511
LC-2-ad; first compound 6.325 µM
  relative viability: 0.39
LC-2-ad; first compound 20 µM
  relative viability: 0.217
NCI-H1792; first compound 0.2 µM
  relative viability: 0.525
NCI-H1792; first compound 0.6325 µM
  relative viability: 0.48
NCI-H1792; first compound 2 µM
  relative viability: 0.589
NCI-H1792; first compound 6.325 µM
  relative viability: 0.617
NCI-H1792; first compound 20 µM
  relative viability: 0.544
EMC-BAC-2; first compound 0.2 µM
  relative viability: 1.18
EMC-BAC-2; first compound 0.6325 µM
  relative viability: 1.16
EMC-BAC-2; first compound 2 µM
  relative viability: 1.13
EMC-BAC-2; first compound 6.325 µM
  relative viability: 1.25
EMC-BAC-2; first compound 20 µM
  relative viability: 1.15
HCC-15; first compound 0.2 µM
  relative viability: 0.772
HCC-15; first compound 0.6325 µM
  relative viability: 0.686
HCC-15; first compound 2 µM
  relative viability: 0.694
HCC-15; first compound 6.325 µM
  relative viability: 0.713
HCC-15; first compound 20 µM
  relative viability: 0.455
PC-14; first compound 0.2 µM
  relative viability: 0.951
PC-14; first compound 0.6325 µM
  relative viability: 0.932
PC-14; first compound 2 µM
  relative viability: 0.936
PC-14; first compound 6.325 µM
  relative viability: 1.03
PC-14; first compound 20 µM
  relative viability: 0.929
EKVX; first compound 0.2 µM
  relative viability: 1.03
EKVX; first compound 0.6325 µM
  relative viability: 0.621
EKVX; first compound 2 µM
  relative viability: 0.71
EKVX; first compound 6.325 µM
  relative viability: 0.938
EKVX; first compound 20 µM
  relative viability: 0.777
LCLC-97TM1; first compound 0.2 µM
  relative viability: 0.605
LCLC-97TM1; first compound 2 µM
  relative viability: 0.644
LCLC-97TM1; first compound 6.325 µM
  relative viability: 0.531
LCLC-97TM1; first compound 20 µM
  relative viability: 0.0875
NCI-H23; first compound 0.2 µM
  relative viability: 1.03
NCI-H23; first compound 0.6325 µM
  relative viability: 0.668
NCI-H23; first compound 2 µM
  relative viability: 0.701
NCI-H23; first compound 6.325 µM
  relative viability: 0.811
NCI-H23; first compound 20 µM
  relative viability: 0.119
ChaGo-K-1; first compound 0.2 µM
  relative viability: 1.08
ChaGo-K-1; first compound 0.6325 µM
  relative viability: 0.667
ChaGo-K-1; first compound 2 µM
  relative viability: 1.11
ChaGo-K-1; first compound 6.325 µM
  relative viability: 1.11
ChaGo-K-1; first compound 20 µM
  relative viability: 0.404
NCI-H1993; first compound 0.2 µM
  relative viability: 0.997
NCI-H1993; first compound 0.6325 µM
  relative viability: 0.772
NCI-H1993; first compound 2 µM
  relative viability: 0.813
NCI-H1993; first compound 6.325 µM
  relative viability: 0.889
NCI-H1993; first compound 20 µM
  relative viability: 1.02
NCI-H1944; first compound 0.2 µM
  relative viability: 1.18
NCI-H1944; first compound 0.6325 µM
  relative viability: 0.892
NCI-H1944; first compound 6.325 µM
  relative viability: 1.02
NCI-H1944; first compound 20 µM
  relative viability: 1.08
SK-LU-1; first compound 0.2 µM
  relative viability: 0.848
SK-LU-1; first compound 0.6325 µM
  relative viability: 1.06
SK-LU-1; first compound 2 µM
  relative viability: 0.789
SK-LU-1; first compound 6.325 µM
  relative viability: 1.15
SK-LU-1; first compound 20 µM
  relative viability: 0.0933
NCI-H460; first compound 0.2 µM
  relative viability: 1.44
NCI-H460; first compound 0.6325 µM
  relative viability: 0.971
NCI-H460; first compound 2 µM
  relative viability: 1.06
NCI-H460; first compound 6.325 µM
  relative viability: 0.528
NCI-H460; first compound 20 µM
  relative viability: 0.0099
NCI-H1793; first compound 0.2 µM
  relative viability: 0.576
NCI-H1793; first compound 0.6325 µM
  relative viability: 0.446
NCI-H1793; first compound 6.325 µM
  relative viability: 0.609
NCI-H1793; first compound 20 µM
  relative viability: 0.49
NCI-H322M; first compound 0.2 µM
  relative viability: 1.51
NCI-H322M; first compound 6.325 µM
  relative viability: 1.4
NCI-H322M; first compound 20 µM
  relative viability: 1.13
EPLC-272H; first compound 0.2 µM
  relative viability: 1.33
EPLC-272H; first compound 0.6325 µM
  relative viability: 0.933
EPLC-272H; first compound 2 µM
  relative viability: 1.15
EPLC-272H; first compound 6.325 µM
  relative viability: 1.15
EPLC-272H; first compound 20 µM
  relative viability: 0.989
